Reference: patent US9012200B2, “Composition of bacterial strains, bioremediation mixture and use of this composition for the removal of contaminants from the soil and the method for purifying the soil contaminants” (priority 2012, dated 2015)
Values after ≈ are worked out from the molar mass of the structure shown.

Legend:
[1] = tested on: Brevundimonas sp. strain 5N; assay: Disc diffusion antibiotic susceptibility; type: cell-based
Method: (§1) A disc diffusion method was performed to determine the susceptibility of bacteria to the selected antibiotics. We used discs soaked with the antibiotic of a well-defined concentration (BioMerioux) (Table 2) and the minimal inhibitory concentration test was carried out, using E-tests (Oxoid) (Table 3).
(§2) A McFarland's 0.5 inoculum was prepared from each strain's culture, using a densitometer (EMO). Then, using sterile cotton swabs, the suspension of bacterial cells was spread on dishes with ready-to-use MHA medium (Oxoid), and after 15 minutes, discs soaked with antibiotics at defined concentrations were placed on them.
(§3) The dishes were incubated at 25-30° C., and the results were read after 24 and 48 hours. The measure of susceptibility of a tested strain to a given antibiotic was the size of the inhibition zone which formed around the disc soaked with the antibiotic. The results read (sizes of zones measured in mm) were compared with the data contained in the European Committee on Antimicrobial Susceptibility Testing (EUCAST) standards from 2010 (Table 4).
(§4) The measure of susceptibility of the tested bacterial strain to a given antibiotic was the size of the inhibition zone which formed around the disc (Table 5).

[2] = tested on: Brevundimonas sp. strain 2N; assay: Disc diffusion antibiotic susceptibility; type: cell-based
Method: as §1, §2, §3, §4

[3] = tested on: Stenotrophomonas sp. strain 6L; assay: Disc diffusion antibiotic susceptibility; type: cell-based
Method: as §1, §2, §3, §4

[4] = tested on: Pseudomonas sp. strain 4G; assay: Disc diffusion antibiotic susceptibility; type: cell-based
Method: as §1, §2, §3, §4

[5] = tested on: Achromobacter sp. strain 4P; assay: Disc diffusion antibiotic susceptibility; type: cell-based
Method: as §1, §2, §3, §4

[6] = tested on: Stenotrophomonas sp. strain 2L; assay: Disc diffusion antibiotic susceptibility; type: cell-based
Method: as §1, §2, §3, §4

[7] = tested on: Arthrobacter sp. strain 1N; assay: Disc diffusion antibiotic susceptibility; type: cell-based
Method: as §1, §2, §3, §4

[8] = tested on: Pseudomonas sp. strain 3G; assay: Disc diffusion antibiotic susceptibility; type: cell-based
Method: as §1, §2, §3, §4

[9] = tested on: Brevundimonas sp. strain 6N; assay: Disc diffusion antibiotic susceptibility; type: cell-based
Method: as §1, §2, §3, §4

[10] = tested on: Stenotrophomonas sp. strain 3N; assay: Disc diffusion antibiotic susceptibility; type: cell-based
Method: as §1, §2, §3, §4

[11] = tested on: Stenotrophomonas sp. strain 5L; assay: Disc diffusion antibiotic susceptibility; type: cell-based
Method: as §1, §2, §3, §4

[12] = tested on: Brevundimonas sp. strain 5N; assay: Antibiotic MIC by E-test; type: cell-based; conditions: Brevundimonas, 24 h, read-out: MIC threshold values for a given antibiotic
Method: as §1
(§5) In the next stage of the research, MIC values of a given antibiotic for the investigated strains were determined, meaning the lowest concentration of the drug, expressed in mg/L, determined in vitro, which inhibits the growth of bacteria at a defined inoculum density, within a given time (Hryniewicz et at, 2001). These studies allow for the closer determination of the degree of susceptibility of bacteria to the applied antibiotics.
(§6) A bacterial suspension was evenly distributed on dishes with ready-to-use MHA medium (Oxoid), and then plastic testing strips (E-tests) soaked with an antibiotic with a concentration gradient were placed thereon. The dishes were incubated at 25-30° C. for 24 h, and the test results were read after this time.
(§7) The intersection of elliptical zone of inhibition, which appeared around the test strip, with the value indicator on the gradient scale of the strip, determined the lowest concentration of antibiotic, inhibiting growth of the microorganism (MIC). Similarly as in the disc diffusion method, the obtained results were compared with the guidelines contained in the relevant standards.

[13] = tested on: Brevundimonas sp. strain 2N; assay: Antibiotic MIC by E-test; type: cell-based; conditions: Brevundimonas, 24 h, read-out: MIC threshold values for a given antibiotic
Method: as §1, §5, §6, §7

[14] = tested on: Stenotrophomonas sp. strain 6L; assay: Antibiotic MIC by E-test; type: cell-based; conditions: Stenotrophomonas, 24 h, read-out: MIC threshold values for a given antibiotic
Method: as §1, §5, §6, §7

[15] = tested on: Pseudomonas sp. strain 4G; assay: Antibiotic MIC by E-test; type: cell-based; conditions: Pseudomonas, 24 h, read-out: MIC threshold values for a given antibiotic
Method: as §1, §5, §6, §7

[16] = tested on: Achromobacter sp. strain 4P; assay: Antibiotic MIC by E-test; type: cell-based; conditions: Achromobacter; strain 4P, E-test, 24 h; read-out: MIC threshold values for a given antibiotic
Method: as §1, §5, §6, §7

[17] = tested on: Stenotrophomonas sp. strain 2L; assay: Antibiotic MIC by E-test; type: cell-based; conditions: Stenotrophomonas, 24 h, read-out: MIC threshold values for a given antibiotic
Method: as §1, §5, §6, §7

[18] = tested on: Arthrobacter sp. strain 1N; assay: Antibiotic MIC by E-test; type: cell-based; conditions: Arthrobacter; strain 1N, E-test, 24 h; read-out: MIC threshold values for a given antibiotic
Method: as §1, §5, §6, §7

[19] = tested on: Pseudomonas sp. strain 3G; assay: Antibiotic MIC by E-test; type: cell-based; conditions: Pseudomonas, 24 h, read-out: MIC threshold values for a given antibiotic
Method: as §1, §5, §6, §7

[20] = tested on: Brevundimonas sp. strain 6N; assay: Antibiotic MIC by E-test; type: cell-based; conditions: Brevundimonas, 24 h, read-out: MIC threshold values for a given antibiotic
Method: as §1, §5, §6, §7

[21] = tested on: Stenotrophomonas sp. strain 3N; assay: Antibiotic MIC by E-test; type: cell-based; conditions: Stenotrophomonas, 24 h, read-out: MIC threshold values for a given antibiotic
Method: as §1, §5, §6, §7

[22] = tested on: Stenotrophomonas sp. strain 5L; assay: Antibiotic MIC by E-test; type: cell-based; conditions: Stenotrophomonas, 24 h, read-out: MIC threshold values for a given antibiotic
Method: as §1, §5, §6, §7

[23] = tested on: investigated strains of bacteria; type: cell-based
[24] = tested on: model strain Escherichia coli; conditions: according to Spain, 2003; cited from earlier work

## [H]/N=C(/N)N[C@H]1[C@H](O)[C@@H](O)[C@H](O[C@@H]2O[C@@H](C)[C@](O)(C=O)[C@H]2O[C@@H]2O[C@@H](CO)[C@H](O)[C@@H](O)[C@@H]2NC)[C@@H](N/C(N)=N\[H])[C@@H]1O [S, streptomycin]
[1]; 24 h
  Size of the growth inhibition zone: 0 mm
[2]; 24 h
  Size of the growth inhibition zone: 0 mm
[3]; 24 h
  Size of the growth inhibition zone: 0 mm
[4]; 24 h
  Size of the growth inhibition zone: 0 mm
[5]; 24 h
  Size of the growth inhibition zone: 0 mm
[6]; 24 h
  Size of the growth inhibition zone: 16 mm
[6]; 48 h
  Size of the growth inhibition zone: 10 mm
[7]; 24 h
  Size of the growth inhibition zone: 12 mm
[7]; 48 h
  Size of the growth inhibition zone: 10 mm
[8]; 24 h
  Size of the growth inhibition zone: 10 mm
[9]; 24 h
  Size of the growth inhibition zone: 0 mm
[10]; 24 h
  Size of the growth inhibition zone: 0 mm
[11]; 24 h
  Size of the growth inhibition zone: 8 mm
[12]
  MIC: 64 µg/mL (≈ 110 µM)
[13]
  MIC: 384 µg/mL (≈ 660 µM)
[14]
  MIC: ≥ 1020 µg/mL
[15]
  MIC: ≥ 1020 µg/mL
[16]
  MIC: 96 µg/mL (≈ 165 µM)
[17]
  MIC: 64 µg/mL (≈ 110 µM)
[18]
  MIC: 48 µg/mL (≈ 82.5 µM)
[19]
  MIC: ≥ 1020 µg/mL
[20]
  MIC: ≥ 1020 µg/mL
[21]
  MIC: 384 µg/mL (≈ 660 µM)
[22]
  MIC: 64 µg/mL (≈ 110 µM)

## CN(C)[C@@H]1C(O)=C(C(N)=O)C(=O)[C@@]2(O)C(O)=C3C(=O)c4c(O)cccc4[C@@](C)(O)[C@H]3C[C@@H]12 [TE, tetracycline]
[1]; 24 h
  Size of the growth inhibition zone: 18 mm
[1]; 48 h
  Size of the growth inhibition zone: 0 mm
[2]; 24 h
  Size of the growth inhibition zone: 18 mm
[2]; 48 h
  Size of the growth inhibition zone: 0 mm
[3]; 24 h
  Size of the growth inhibition zone: 17 mm
[3]; 48 h
  Size of the growth inhibition zone: 0 mm
[4]; 24 h
  Size of the growth inhibition zone: 19 mm
[4]; 48 h
  Size of the growth inhibition zone: 0 mm
[5]; 24 h
  Size of the growth inhibition zone: 19 mm
[5]; 48 h
  Size of the growth inhibition zone: 0 mm
[6]; 24 h
  Size of the growth inhibition zone: 17 mm
[6]; 48 h
  Size of the growth inhibition zone: 0 mm
[7]; 24 h
  Size of the growth inhibition zone: 17 mm
[7]; 48 h
  Size of the growth inhibition zone: 0 mm
[8]; 24 h
  Size of the growth inhibition zone: 17 mm
[8]; 48 h
  Size of the growth inhibition zone: 0 mm
[9]; 24 h
  Size of the growth inhibition zone: 17 mm
[9]; 48 h
  Size of the growth inhibition zone: 0 mm
[10]; 24 h
  Size of the growth inhibition zone: 19 mm
[10]; 48 h
  Size of the growth inhibition zone: 0 mm
[11]; 24 h
  Size of the growth inhibition zone: 19 mm
[11]; 48 h
  Size of the growth inhibition zone: 0 mm
[12]
  MIC: 6 µg/mL (≈ 13.5 µM)
[13]
  MIC: 6 µg/mL (≈ 13.5 µM)
[14]
  MIC: 6 µg/mL (≈ 13.5 µM)
[15]
  MIC: 6 µg/mL (≈ 13.5 µM)
[16]
  MIC: 12 µg/mL (≈ 27 µM)
[17]
  MIC: 6 µg/mL (≈ 13.5 µM)
[18]
  MIC: 6 µg/mL (≈ 13.5 µM)
[19]
  MIC: 6 µg/mL (≈ 13.5 µM)
[20]
  MIC: 6 µg/mL (≈ 13.5 µM)
[21]
  MIC: 6 µg/mL (≈ 13.5 µM)
[22]
  MIC: 8 µg/mL (≈ 18 µM)

## O=C(O)c1cn(C2CC2)c2cc(N3CCNCC3)c(F)cc2c1=O [CIP, ciprofloxacin]
[1]; 24 h
  Size of the growth inhibition zone: 0 mm
[2]; 24 h
  Size of the growth inhibition zone: 0 mm
[3]; 24 h
  Size of the growth inhibition zone: 0 mm
[4]; 24 h
  Size of the growth inhibition zone: 0 mm
[5]; 24 h
  Size of the growth inhibition zone: 0 mm
[6]; 24 h
  Size of the growth inhibition zone: 0 mm
[7]; 24 h
  Size of the growth inhibition zone: 0 mm
[8]; 24 h
  Size of the growth inhibition zone: 0 mm
[9]; 24 h
  Size of the growth inhibition zone: 0 mm
[10]; 24 h
  Size of the growth inhibition zone: 0 mm
[11]; 24 h
  Size of the growth inhibition zone: 10 mm
[11]; 48 h
  Size of the growth inhibition zone: 0 mm
[12]
  MIC: ≥ 32 µg/mL
[13]
  MIC: ≥ 32 µg/mL
[14]
  MIC: ≥ 32 µg/mL
[15]
  MIC: ≥ 32 µg/mL
[16]
  MIC: ≥ 32 µg/mL
[17]
  MIC: ≥ 32 µg/mL
[18]
  MIC: ≥ 32 µg/mL
[19]
  MIC: ≥ 32 µg/mL
[20]
  MIC: ≥ 32 µg/mL
[21]
  MIC: ≥ 32 µg/mL
[22]
  MIC: 4 µg/mL (≈ 12.1 µM)

## [K+].[K+].[O]=[Cr](=[O])([O-])[O][Cr](=[O])(=[O])[O-] [Cr(VI), Potassium dichromate]
[23]
  Susceptibility of the investigated strains to the heavy metal: resistant
[24]
  MIC: 0.2 mM/L

## Cc1cc(NS(=O)(=O)c2ccc(N)cc2)no1 [RL, sulfamethoxazole]
[1]; 24 h
  Size of the growth inhibition zone: 0 mm
[2]; 24 h
  Size of the growth inhibition zone: 0 mm
[3]; 24 h
  Size of the growth inhibition zone: 0 mm
[4]; 24 h
  Size of the growth inhibition zone: 0 mm
[5]; 24 h
  Size of the growth inhibition zone: 0 mm
[6]; 24 h
  Size of the growth inhibition zone: 0 mm
[7]; 24 h
  Size of the growth inhibition zone: 0 mm
[8]; 24 h
  Size of the growth inhibition zone: 0 mm
[9]; 24 h
  Size of the growth inhibition zone: 0 mm
[10]; 24 h
  Size of the growth inhibition zone: 0 mm
[11]; 24 h
  Size of the growth inhibition zone: 0 mm
[12]
  MIC: ≥ 1020 µg/mL
[13]
  MIC: 12 µg/mL (≈ 47.4 µM)
[14]
  MIC: 12 µg/mL (≈ 47.4 µM)
[15]
  MIC: ≥ 1020 µg/mL
[16]
  MIC: 12 µg/mL (≈ 47.4 µM)
[17]
  MIC: 6 µg/mL (≈ 23.7 µM)
[18]
  MIC: 12 µg/mL (≈ 47.4 µM)
[19]
  MIC: ≥ 1020 µg/mL
[20]
  MIC: ≥ 1020 µg/mL
[21]
  MIC: 12 µg/mL (≈ 47.4 µM)
[22]
  MIC: 8 µg/mL (≈ 31.6 µM)
